These results are taken from ChEMBL document CHEMBL4476883, “Hydroxy formamide derivatives and their use” (2017).

Assay [1] can be described thus: Reduction in PICP levels in human cardiac fibroblasts incubated for 24 to 48 hrs by ELISA. In kind it is functional.
In the next assay the target is T1, Tolloid-like protein 2 (Homo sapiens, UniProt Q9Y6L7).
T1 sequence (Q9Y6L7 whole entry): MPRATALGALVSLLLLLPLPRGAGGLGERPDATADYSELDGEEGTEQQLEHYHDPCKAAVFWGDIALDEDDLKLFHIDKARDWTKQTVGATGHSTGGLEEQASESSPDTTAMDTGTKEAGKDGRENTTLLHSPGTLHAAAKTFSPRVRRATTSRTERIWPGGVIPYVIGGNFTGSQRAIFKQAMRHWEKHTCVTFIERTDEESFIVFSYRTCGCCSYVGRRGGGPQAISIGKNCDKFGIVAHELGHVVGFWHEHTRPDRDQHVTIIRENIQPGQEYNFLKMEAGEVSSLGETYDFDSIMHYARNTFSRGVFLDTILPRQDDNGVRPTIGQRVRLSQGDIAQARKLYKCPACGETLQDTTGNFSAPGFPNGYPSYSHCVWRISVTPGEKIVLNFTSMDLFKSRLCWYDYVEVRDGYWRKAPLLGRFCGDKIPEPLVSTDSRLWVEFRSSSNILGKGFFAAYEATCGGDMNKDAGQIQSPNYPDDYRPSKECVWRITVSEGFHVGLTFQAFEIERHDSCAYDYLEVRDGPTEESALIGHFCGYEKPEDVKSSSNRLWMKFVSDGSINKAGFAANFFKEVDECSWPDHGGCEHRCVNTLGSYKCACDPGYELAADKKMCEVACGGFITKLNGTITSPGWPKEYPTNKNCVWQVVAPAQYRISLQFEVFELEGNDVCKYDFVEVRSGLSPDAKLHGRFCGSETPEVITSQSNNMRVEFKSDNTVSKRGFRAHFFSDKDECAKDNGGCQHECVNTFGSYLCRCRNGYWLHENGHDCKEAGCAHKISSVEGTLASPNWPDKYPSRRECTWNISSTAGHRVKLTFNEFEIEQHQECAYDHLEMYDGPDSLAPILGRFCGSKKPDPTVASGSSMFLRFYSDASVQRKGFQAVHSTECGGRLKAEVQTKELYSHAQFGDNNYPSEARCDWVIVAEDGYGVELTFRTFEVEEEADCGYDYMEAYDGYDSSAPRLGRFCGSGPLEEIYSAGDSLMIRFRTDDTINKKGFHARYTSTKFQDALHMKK
The experiment in a line: Inhibition of C-terminal Avi-6x-His epitope tagged and N-terminal human RAGE signal sequence tagged recombinant human TLL2 (26 to 1015 amino acids) expressed in CHOE1A cells incubated for 60 mins with promyostatin peptide substrate by FRET based assay. In kind it is cell-based.

Assay [2] addresses T2, Bone morphogenetic protein 1 (Homo sapiens, UniProt P13497).
T2 sequence (P13497 whole entry): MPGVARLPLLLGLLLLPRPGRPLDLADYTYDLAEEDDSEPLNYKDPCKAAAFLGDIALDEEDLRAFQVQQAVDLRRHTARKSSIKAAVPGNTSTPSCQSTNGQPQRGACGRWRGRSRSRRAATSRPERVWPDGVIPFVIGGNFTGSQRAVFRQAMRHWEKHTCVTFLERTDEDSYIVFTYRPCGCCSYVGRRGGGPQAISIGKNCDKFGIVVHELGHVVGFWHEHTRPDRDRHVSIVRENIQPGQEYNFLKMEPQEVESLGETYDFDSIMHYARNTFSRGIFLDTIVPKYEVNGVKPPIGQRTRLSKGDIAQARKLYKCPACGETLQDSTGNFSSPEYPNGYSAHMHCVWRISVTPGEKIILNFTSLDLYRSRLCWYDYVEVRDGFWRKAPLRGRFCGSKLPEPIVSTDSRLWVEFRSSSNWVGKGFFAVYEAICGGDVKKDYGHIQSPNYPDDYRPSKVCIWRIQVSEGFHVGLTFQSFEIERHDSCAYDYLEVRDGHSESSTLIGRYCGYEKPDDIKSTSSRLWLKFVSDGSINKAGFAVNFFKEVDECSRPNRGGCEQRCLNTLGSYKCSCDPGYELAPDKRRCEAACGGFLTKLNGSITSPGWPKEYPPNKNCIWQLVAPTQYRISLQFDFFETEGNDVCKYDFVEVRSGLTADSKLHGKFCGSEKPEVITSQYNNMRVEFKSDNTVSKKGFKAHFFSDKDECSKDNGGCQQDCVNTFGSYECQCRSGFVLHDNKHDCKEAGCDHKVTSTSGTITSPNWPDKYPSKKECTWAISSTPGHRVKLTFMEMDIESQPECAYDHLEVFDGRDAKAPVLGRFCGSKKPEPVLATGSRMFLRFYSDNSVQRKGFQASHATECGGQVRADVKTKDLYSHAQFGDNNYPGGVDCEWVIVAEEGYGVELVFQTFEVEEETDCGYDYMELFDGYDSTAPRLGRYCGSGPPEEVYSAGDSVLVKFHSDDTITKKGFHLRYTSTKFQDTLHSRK
Description: Inhibition of C-terminal FLAG-6x-His epitope tagged and N-terminal human RAGE signal sequence tagged human BMP1 (23 to 721 amino acids) expressed in CHO-E1A cells pre-incubated for 10 mins before promyostatin peptide substrate addition and measured after 30 mins using 50 nM BMP1 by FRET based assay. Format: cell-based.

Assay [3] addresses T2, Bone morphogenetic protein 1. The experiment in a line: Inhibition of C-terminal FLAG-6x-His epitope tagged and N-terminal human RAGE signal sequence tagged human BMP1 (23 to 721 amino acids) expressed in CHO-E1A cells pre-incubated for 10 mins before promyostatin peptide substrate addition and measured after 60 mins using 0.5 nM BMP1 by FRET based assay. Format: cell-based.

Another assay has as its target Tolloid-like protein 1 (Homo sapiens, UniProt O43897, I156V/N221S/V284A). Description: Inhibition of recombinant human TLL1 I156V/N221S/V284A mutant expressed in CHOE1A cells pre-incubated for 10 mins before promyostatin peptide substrate addition and measured after 60 mins by FRET based assay. In kind it is cell-based.

Chain of Tolloid-like protein 1 (O43897 148-1013 I156V/N221S/V284A limits assumed): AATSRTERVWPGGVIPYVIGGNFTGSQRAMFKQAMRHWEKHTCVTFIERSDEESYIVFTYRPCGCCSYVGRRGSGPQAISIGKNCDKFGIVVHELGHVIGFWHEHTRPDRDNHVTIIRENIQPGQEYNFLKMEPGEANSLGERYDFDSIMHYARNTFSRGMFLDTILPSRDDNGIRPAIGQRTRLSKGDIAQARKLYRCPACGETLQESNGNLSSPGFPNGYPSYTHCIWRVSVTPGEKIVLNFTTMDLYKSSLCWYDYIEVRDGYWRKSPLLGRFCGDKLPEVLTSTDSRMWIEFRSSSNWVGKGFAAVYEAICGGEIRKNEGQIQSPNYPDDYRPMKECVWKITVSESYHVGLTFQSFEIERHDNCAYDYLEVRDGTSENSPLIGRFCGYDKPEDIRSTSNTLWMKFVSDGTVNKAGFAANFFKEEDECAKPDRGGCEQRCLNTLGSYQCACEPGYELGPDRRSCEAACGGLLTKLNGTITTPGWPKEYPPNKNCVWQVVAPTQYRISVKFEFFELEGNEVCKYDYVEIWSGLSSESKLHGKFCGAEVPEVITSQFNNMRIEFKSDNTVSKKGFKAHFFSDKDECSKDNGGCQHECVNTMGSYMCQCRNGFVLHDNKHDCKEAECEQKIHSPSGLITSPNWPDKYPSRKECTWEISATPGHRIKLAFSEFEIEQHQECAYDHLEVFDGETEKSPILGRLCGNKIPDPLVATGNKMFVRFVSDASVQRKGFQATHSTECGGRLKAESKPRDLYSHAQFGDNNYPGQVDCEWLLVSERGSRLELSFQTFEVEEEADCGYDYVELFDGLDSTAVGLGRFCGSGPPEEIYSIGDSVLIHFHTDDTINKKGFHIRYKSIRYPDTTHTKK

`CCCCC[C@H](CN(O)C=O)C(=O)NCNC(=O)c1cccc(-c2cccc(C(=O)O)c2)c1`: the IC50 (commonly the concentration at which inhibition is half-maximal) in assay [1] was < 20 µM; on Tolloid-like protein 2, < 0.631 µM; in assay [2] it was < 0.251 µM; in assay [3], < 0.126 µM; at Tolloid-like protein 1, < 0.398 µM.
For `CCCCC[C@H](CN(O)C=O)C(=O)NCNC(=O)c1cccc(-c2cccc(OC)c2F)c1` the same measures were < 20 µM, < 0.631 µM, < 0.251 µM, < 0.126 µM and < 0.398 µM.
For `CCCCC[C@H](CN(O)C=O)C(=O)NCNC(=O)c1cccc(-c2ccnn2CC)c1` the same measures were < 20 µM, < 0.631 µM, < 0.251 µM, < 0.126 µM and < 0.398 µM.
`CCCCC[C@@H](C(=O)NCNC(=O)c1cc(C(=O)O)cc(-c2cc(OCC)cc(C(=O)O)c2)c1)[C@@H](CC)N(O)C=O`: the figures for the concentration for half-maximal inhibition (IC50) in assay [1], in assay [2] and in assay [3] were < 20 µM, < 0.251 µM and < 0.126 µM, respectively.
In the case of `CCCCC[C@H](CN(O)C=O)C(=O)NCNC(=O)c1cccc(-c2cccc(C(N)=O)c2)c1`, the IC50 in assay [1] is < 20 µM; on Tolloid-like protein 2 it was < 0.631 µM; in assay [2] it was < 0.251 µM; in assay [3], < 0.126 µM; on Tolloid-like protein 1, < 0.398 µM.
For `CCCCC[C@H](CN(O)C=O)C(=O)NCNC(=O)c1cccc(-c2cccc(NS(C)(=O)=O)c2)c1` the same measures were < 20 µM, < 0.631 µM, < 0.251 µM, < 0.126 µM and < 0.398 µM.
For `CCCCC[C@H](CN(O)C=O)C(=O)NCNC(=O)c1cccc(-c2ccc(OC)cc2)c1` the same measures were < 20 µM, < 0.631 µM, < 0.251 µM, < 0.126 µM and < 0.398 µM.
Taken in the same sequence, the figures for `CCCCC[C@H](CN(O)C=O)C(=O)NCNC(=O)c1cccc(-c2cccc(S(N)(=O)=O)c2)c1` were < 20 µM, < 0.631 µM, < 0.251 µM, < 0.126 µM and < 0.398 µM.
On to `CCCCC[C@H](CN(O)C=O)C(=O)NCNC(=O)c1cccc(-c2ccc(N(C)C)cc2)c1`, for which the IC50 is < 20 µM in assay [1]; < 0.631 µM at Tolloid-like protein 2; < 0.251 µM in assay [2]; < 0.126 µM in assay [3]; < 0.398 µM at Tolloid-like protein 1.
Regarding `CCCCC[C@H](CN(O)C=O)C(=O)NCNC(=O)c1cccc(-c2cccc(N(C)C)c2)c1`, the IC50 in assay [1] was < 20 µM; at Tolloid-like protein 2, < 0.631 µM; in assay [2], < 0.251 µM; in assay [3] it was < 0.126 µM; at Tolloid-like protein 1, < 0.398 µM.
Taken in the same sequence, the figures for `CCCCC[C@H](CN(O)C=O)C(=O)NCNC(=O)c1cccc(-c2ccc(F)c(OC)c2)c1` were < 20 µM, < 0.631 µM, < 0.251 µM, < 0.126 µM and < 0.398 µM.
For the molecule `CCCCC[C@H](CN(O)C=O)C(=O)NCNC(=O)c1cccc(-c2cccc(OCC(F)(F)F)c2)c1`, the 50% inhibitory concentration (IC50) in assay [1] is < 20 µM; on Tolloid-like protein 2, < 0.631 µM; in assay [2], < 0.251 µM; in assay [3], < 0.126 µM; on Tolloid-like protein 1, < 0.398 µM.
Taken in the same sequence, the figures for `CCCCC[C@H](CN(O)C=O)C(=O)NCNC(=O)c1cccc(-c2cccc(S(C)(=O)=O)c2)c1` were < 20 µM, < 0.631 µM, < 0.251 µM, < 0.126 µM and < 0.398 µM.
In the case of `CCCCC[C@H](CN(O)C=O)C(=O)NCNC(=O)c1cccc(-c2ccccc2F)c1`, the IC50 in assay [1] was < 20 µM; at Tolloid-like protein 2 it was < 0.631 µM; in assay [2], < 0.251 µM; in assay [3] it was < 0.126 µM; on Tolloid-like protein 1 it was < 0.398 µM.
